Holding throughout (assay type): biochemical
For data set [1], the target named is T1, acetolactate synthase (Escherichia coli, UniProt P0DP90).
T1 sequence (P0DP90 1-548): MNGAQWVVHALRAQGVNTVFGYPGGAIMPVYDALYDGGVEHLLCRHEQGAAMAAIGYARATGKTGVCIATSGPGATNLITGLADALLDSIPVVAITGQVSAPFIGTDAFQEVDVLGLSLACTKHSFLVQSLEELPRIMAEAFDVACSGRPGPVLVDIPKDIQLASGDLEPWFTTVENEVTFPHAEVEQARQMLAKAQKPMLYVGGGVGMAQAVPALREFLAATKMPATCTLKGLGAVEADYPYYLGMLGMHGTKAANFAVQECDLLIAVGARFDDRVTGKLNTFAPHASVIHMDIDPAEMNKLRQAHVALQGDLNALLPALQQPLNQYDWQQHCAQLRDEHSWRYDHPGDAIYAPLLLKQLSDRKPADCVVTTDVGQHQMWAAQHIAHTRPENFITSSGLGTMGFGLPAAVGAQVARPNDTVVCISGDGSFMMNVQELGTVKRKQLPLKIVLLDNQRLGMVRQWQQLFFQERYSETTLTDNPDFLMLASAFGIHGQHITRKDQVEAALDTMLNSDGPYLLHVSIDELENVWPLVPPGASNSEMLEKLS
T1 sequence (P0ADG1 1-87 partner): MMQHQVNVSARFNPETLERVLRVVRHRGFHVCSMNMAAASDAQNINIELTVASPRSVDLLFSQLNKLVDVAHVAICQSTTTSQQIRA
Briefly: Oxygenase activity of acetolactate synthase with different substrates (oxygen-sensitive electrode). Here is the method:
(§1) To a 1 ml solution containing 0.1 M tricine-NaOH, pH 8, 10 mM MgCl2, 0.1 mM thiamine pyrophosphate, and 0.1 mM flavin adenine dinucleotide were added various concentrations of pyruvate (10 μM to 10 mM), α-keto-butyrate (10 μM to 80 mM), or acetolactate (0.15 to 5.5 mM). After allowing the solution to equilibrate with air (21 % O2), the level of dissolved oxygen was monitored by use of a commercially available oxygen-sensitive electrode (Hansatech) and polarographic electronics as described by Sweet et al. (Analytical Biochemistry 107:337 (1980)). In the absence of further additions, negligible oxygen was consumed over a 30 minute period. To initiate the consumption of oxygen, 20 μl of a 2 mg/ml stock solution of acetolactate synthase was added if pyruvate or α-acetolactate were used as substrate, or 5 μl of a 49 mg/ml stock solution of acetolactate synthase was added if α-ketobutyrate was used as substrate. The limiting rate of oxygen consumption at saturating concentrations of pyruvate, α-ketobutyrate, or α-acetolactate are illustrated in Table 1. The concentrations of α-acetolactate or α-ketobutyrate that gave half of the maximum rate (the Michaelis constant) were 1.4 mM and 32 μM, respectively.

Data set [2] has as its target T1, acetolactate synthase. Briefly: Sensitivity of the oxygenase activity of acetolactate synthase to herbicides (oxygen-sensitive electrode). The settings on record: 100 μM pyruvate as substrate; rate of oxygen consumption; pH 8; read-out: Concentration that Gives 50% Inhibition. Here is the method:
as §1, with “The concentrations of α-acetolactate or α-ketobutyrate that gave half of the maximum rate (the Michaelis constant) were 1.4 mM and 32 μM, respectively.” left out
Assays were conducted as described under Examples 1-3, except that 100 μM pyruvate was used as substrate. […] These values are similar to previously reported values (Schloss et al. Nature 331:360 (1988)) for inhibition of the enzyme monitored by use of the known acetolactate-forming reaction.

Substrate in data set [3]: CC(=O)C(C)(O)C(=O)O
The experiment in a line: Oxygenase activity of acetolactate synthase with different substrates (oxygen-sensitive electrode). The note with it: other: oxygen consumption, pH 8, air-equilibrated. Here is the method: as §1

Substrate in data set [4]: CCC(=O)C(=O)O
Described as above. The note with it: other: oxygen consumption, pH 8, air-equilibrated. Here is the method: as §1

Some results are limits rather than exact numbers.

Take `CC(=O)C(C)(O)C(=O)O` (stereo not drawn) [α-Acetolactate]: the “Maximum rate (μmoles of oxygen consumed/mg enzyme/min)” value in data set [1] (limiting rate of oxygen consumption at saturating substrate, 0.1 M tricine-NaOH pH 8, air-equilibrated (21 % O2)) was 0.20 μmoles of oxygen consumed/mg e.
Consider `CC(=O)C(=O)O` [Pyruvate], for which, in data set [1] (oxygen consumption, pH 8, air-equilibrated, read-out: Concentration that gave half of the maximum rate (the Michaelis constant)), the Km was less than 10 µM.
In the case of `COc1nc(C)nc(NC(=O)NS(=O)(=O)c2ccccc2Cl)n1` [chlorsulfuron], the IC50 in data set [2] was found to be 500 nM.
Same read-out and setting: the result for `COC(=O)c1ccccc1S(=O)(=O)NC(=O)Nc1nc(C)cc(C)n1` [sulfometuron methyl] reads 1000 nM.

B1: acetolactate synthase (Escherichia coli K-12) (protein)
chain: MNGAQWVVHALRAQGVNTVFGYPGGAIMPVYDALYDGGVEHLLCRHEQGAAMAAIGYARATGKTGVCIATSGPGATNLITGLADALLDSIPVVAITGQVSAPFIGTDAFQEVDVLGLSLACTKHSFLVQSLEELPRIMAEAFDVACSGRPGPVLVDIPKDIQLASGDLEPWFTTVENEVTFPHAEVEQARQMLAKAQKPMLYVGGGVGMAQAVPALREFLAATKMPATCTLKGLGAVEADYPYYLGMLGMHGTKAANFAVQECDLLIAVGARFDDRVTGKLNTFAPHASVIHMDIDPAEMNKLRQAHVALQGDLNALLPALQQPLNQYDWQQHCAQLRDEHSWRYDHPGDAIYAPLLLKQLSDRKPADCVVTTDVGQHQMWAAQHIAHTRPENFITSSGLGTMGFGLPAAVGAQVARPNDTVVCISGDGSFMMNVQELGTVKRKQLPLKIVLLDNQRLGMVRQWQQLFFQERYSETTLTDNPDFLMLASAFGIHGQHITRKDQVEAALDTMLNSDGPYLLHVSIDELENVWPLVPPGASNSEMLEKLS
As for B1, the Km in data set [3] was 1400 µM; in data set [4], 32 µM.

(Values after patent US5206135A, “Use of the oxygenase activity of acetolactate synthase for herbicide detection” (E. I. Du Pont de Nemours and Company, priority 1990, dated 1993).)
